Reference: US20170008888A1 (KYORIN PHARMACEUTICAL CO., LTD., priority 2014, published 2017)

Tests used:
human PBMCs = assay: Human PBMC TNF-α response to endotoxin (ELISA); type: cell-based; details: 0.1 μg/ml LPS 16 h, read-out: EC50 for the inhibition of the human PBMC TNF-α response to endotoxin, ave. ± S.D.
In short: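 PBMCs at 2e6 cells/ml in RPMI 1640 with 10% charcoal-dextran-treated FBS were pre-treated 1 h at 37 °C with compound (4-point 1:5 dilution from 10 μM). Stimulation with 0.1 μg/ml E. coli 0111:B4 LPS for 16 h; TNF-α measured by ELISA (A450) in 25-fold diluted supernatant.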

AMPKa1 or AMPKa2 = assay: Probe-based (AX9989) kinase profiling in Jurkat lysate: AMPKa1 or AMPKa2; type: binding; details: screening concentration 1 μM
In short: (§1)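 Jurkat lysate (50 mM HEPES pH 7.5, 150 mM NaCl, 0.1% Triton X-100, 20 mM MnCl2) pre-incubated 15 min with compound at room temperature, then labeled with 5 μM acyl phosphate ATP probe AX9989. Tryptic probe-labeled peptides streptavidin-captured and quantified by LC/MS; percent inhibition from decreased fragment intensity versus untreated.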

TAO2 = target: T1, TAO2 (Homo sapiens, UniProt Q9UL54); assay: Probe-based (AX9989) kinase profiling in Jurkat lysate: TAO2; type: binding; details: screening concentration 1 μM; read-out: TAO2 Inhibition % at indicated screening concentration
T1 construct: screened for activity against several kinases in Jurkat cells; endogenous in cells; host or cells: Jurkat cell lysate
T1 sequence (Q9UL54 1-1235): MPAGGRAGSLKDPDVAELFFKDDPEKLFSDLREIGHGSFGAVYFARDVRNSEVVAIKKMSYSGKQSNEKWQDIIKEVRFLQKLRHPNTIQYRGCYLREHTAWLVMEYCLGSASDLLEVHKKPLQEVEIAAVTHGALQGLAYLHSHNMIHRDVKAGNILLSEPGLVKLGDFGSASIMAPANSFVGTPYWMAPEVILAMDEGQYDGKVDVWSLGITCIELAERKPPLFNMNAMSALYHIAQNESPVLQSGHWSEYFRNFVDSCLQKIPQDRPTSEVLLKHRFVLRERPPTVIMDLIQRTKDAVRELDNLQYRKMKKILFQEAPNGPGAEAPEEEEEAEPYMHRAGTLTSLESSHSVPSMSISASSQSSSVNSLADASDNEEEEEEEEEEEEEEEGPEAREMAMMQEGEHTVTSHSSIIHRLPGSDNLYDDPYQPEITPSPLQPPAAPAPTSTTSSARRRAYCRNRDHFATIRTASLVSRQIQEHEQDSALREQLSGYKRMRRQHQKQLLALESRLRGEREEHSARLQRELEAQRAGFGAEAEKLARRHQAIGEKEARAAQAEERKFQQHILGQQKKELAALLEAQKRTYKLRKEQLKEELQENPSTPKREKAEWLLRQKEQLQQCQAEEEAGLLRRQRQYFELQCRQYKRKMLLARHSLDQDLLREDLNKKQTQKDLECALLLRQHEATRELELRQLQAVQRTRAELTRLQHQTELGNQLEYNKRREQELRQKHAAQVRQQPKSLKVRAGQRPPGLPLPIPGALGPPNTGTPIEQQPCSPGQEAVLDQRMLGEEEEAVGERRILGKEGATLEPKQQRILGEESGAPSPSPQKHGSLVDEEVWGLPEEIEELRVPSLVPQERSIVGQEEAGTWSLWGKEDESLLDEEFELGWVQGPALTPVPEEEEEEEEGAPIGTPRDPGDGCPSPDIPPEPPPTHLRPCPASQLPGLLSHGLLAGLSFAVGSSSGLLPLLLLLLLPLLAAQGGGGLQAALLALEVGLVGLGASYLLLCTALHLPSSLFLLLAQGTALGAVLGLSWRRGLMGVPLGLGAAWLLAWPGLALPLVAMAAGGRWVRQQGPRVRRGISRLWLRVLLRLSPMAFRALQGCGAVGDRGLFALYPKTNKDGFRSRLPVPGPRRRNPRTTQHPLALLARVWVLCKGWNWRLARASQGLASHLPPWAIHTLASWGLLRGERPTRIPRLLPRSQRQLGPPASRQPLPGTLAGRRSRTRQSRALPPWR
In short: as §1

AurA = target: T2, AurA (Homo sapiens, UniProt O14965); assay: Probe-based (AX9989) kinase profiling in Jurkat lysate: AurA; type: binding; details: screening concentration 1 μM; read-out: AurA Inhibition % at indicated screening concentration
T2 construct: screened for activity against several kinases in Jurkat cells; endogenous in cells; host or cells: Jurkat cell lysate
T2 sequence (O14965 1-403): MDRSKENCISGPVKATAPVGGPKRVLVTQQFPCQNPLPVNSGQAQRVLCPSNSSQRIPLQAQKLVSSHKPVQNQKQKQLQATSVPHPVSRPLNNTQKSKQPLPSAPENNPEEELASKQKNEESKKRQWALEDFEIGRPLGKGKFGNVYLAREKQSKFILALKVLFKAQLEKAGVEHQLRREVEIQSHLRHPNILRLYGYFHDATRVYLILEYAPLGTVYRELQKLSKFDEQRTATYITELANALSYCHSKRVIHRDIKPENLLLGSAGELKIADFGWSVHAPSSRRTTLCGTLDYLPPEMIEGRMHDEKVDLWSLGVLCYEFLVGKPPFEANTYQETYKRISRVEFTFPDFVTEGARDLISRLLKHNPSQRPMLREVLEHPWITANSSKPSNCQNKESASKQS
In short: as §1

AurB or AurC = assay: Probe-based (AX9989) kinase profiling in Jurkat lysate: AurB or AurC; type: binding; details: screening concentration 1 μM
In short: as §1

ACK = target: T3, ACK (Homo sapiens, UniProt Q07912); assay: Probe-based (AX9989) kinase profiling in Jurkat lysate: ACK; type: binding; details: screening concentration 1 μM; read-out: ACK Inhibition % at indicated screening concentration
T3 construct: screened for activity against several kinases in Jurkat cells; endogenous in cells; host or cells: Jurkat cell lysate
In short: as §1

ABL or ARG = assay: Probe-based (AX9989) kinase profiling in Jurkat lysate: ABL or ARG; type: binding; details: screening concentration 1 μM
In short: as §1

JAK1 = target: T4, JAK1 (Homo sapiens, UniProt P23458); assay: Probe-based (AX9989) kinase profiling in Jurkat lysate: JAK1; type: binding; details: screening concentration 1 μM; read-out: JAK1 Inhibition % at indicated screening concentration
T4 construct: screened for activity against several kinases in Jurkat cells; endogenous in cells; host or cells: Jurkat cell lysate
In short: as §1

ERK5 = target: T5, ERK5 (Homo sapiens, UniProt Q13164); assay: Probe-based (AX9989 acyl phosphate ATP probe) kinase profiling in Jurkat lysate: ERK5; type: binding; details: for IC50: calculated from percent inhibition and screening concentration, Jurkat lysate, AX9989 probe; for inhibition at 1 µM: screening concentration 1 μM, read-out: ERK5 Inhibition % at indicated screening concentration
T5 construct: screened for activity against several kinases in Jurkat cells; endogenous in cells; host or cells: Jurkat cell lysate
In short: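 ERK5 IC50 values came from percent inhibition at the screening concentration, measured as loss of LC/MS signal of probe-labelled active-site peptides. Compound was added for 15 min at room temperature to Jurkat lysate (5 mg/ml, 20 mM MnCl2) before labelling with AX9989 ATP acyl phosphate probe at 5 μM.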

T5 sequence (Q13164 whole entry): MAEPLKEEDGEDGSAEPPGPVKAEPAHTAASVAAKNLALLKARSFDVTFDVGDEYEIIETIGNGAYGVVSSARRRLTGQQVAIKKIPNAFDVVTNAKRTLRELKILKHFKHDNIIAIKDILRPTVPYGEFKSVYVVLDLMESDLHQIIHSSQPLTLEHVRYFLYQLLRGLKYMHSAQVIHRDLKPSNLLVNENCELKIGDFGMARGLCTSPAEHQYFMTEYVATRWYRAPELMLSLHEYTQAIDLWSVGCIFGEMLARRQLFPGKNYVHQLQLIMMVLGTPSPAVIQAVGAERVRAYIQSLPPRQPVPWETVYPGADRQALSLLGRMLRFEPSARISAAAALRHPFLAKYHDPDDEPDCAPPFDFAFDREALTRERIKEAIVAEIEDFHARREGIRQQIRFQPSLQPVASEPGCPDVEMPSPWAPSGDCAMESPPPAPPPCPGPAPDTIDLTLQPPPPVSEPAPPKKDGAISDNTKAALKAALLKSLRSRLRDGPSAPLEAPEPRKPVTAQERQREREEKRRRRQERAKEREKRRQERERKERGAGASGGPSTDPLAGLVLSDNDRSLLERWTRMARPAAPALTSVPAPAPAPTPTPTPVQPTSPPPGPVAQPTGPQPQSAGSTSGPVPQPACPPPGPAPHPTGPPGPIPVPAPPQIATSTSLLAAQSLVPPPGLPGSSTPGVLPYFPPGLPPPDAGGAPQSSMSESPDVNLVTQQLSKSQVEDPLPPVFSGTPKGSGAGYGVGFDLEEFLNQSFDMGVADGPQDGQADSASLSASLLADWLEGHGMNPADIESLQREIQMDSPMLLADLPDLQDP
T3 sequence (Q07912 whole entry): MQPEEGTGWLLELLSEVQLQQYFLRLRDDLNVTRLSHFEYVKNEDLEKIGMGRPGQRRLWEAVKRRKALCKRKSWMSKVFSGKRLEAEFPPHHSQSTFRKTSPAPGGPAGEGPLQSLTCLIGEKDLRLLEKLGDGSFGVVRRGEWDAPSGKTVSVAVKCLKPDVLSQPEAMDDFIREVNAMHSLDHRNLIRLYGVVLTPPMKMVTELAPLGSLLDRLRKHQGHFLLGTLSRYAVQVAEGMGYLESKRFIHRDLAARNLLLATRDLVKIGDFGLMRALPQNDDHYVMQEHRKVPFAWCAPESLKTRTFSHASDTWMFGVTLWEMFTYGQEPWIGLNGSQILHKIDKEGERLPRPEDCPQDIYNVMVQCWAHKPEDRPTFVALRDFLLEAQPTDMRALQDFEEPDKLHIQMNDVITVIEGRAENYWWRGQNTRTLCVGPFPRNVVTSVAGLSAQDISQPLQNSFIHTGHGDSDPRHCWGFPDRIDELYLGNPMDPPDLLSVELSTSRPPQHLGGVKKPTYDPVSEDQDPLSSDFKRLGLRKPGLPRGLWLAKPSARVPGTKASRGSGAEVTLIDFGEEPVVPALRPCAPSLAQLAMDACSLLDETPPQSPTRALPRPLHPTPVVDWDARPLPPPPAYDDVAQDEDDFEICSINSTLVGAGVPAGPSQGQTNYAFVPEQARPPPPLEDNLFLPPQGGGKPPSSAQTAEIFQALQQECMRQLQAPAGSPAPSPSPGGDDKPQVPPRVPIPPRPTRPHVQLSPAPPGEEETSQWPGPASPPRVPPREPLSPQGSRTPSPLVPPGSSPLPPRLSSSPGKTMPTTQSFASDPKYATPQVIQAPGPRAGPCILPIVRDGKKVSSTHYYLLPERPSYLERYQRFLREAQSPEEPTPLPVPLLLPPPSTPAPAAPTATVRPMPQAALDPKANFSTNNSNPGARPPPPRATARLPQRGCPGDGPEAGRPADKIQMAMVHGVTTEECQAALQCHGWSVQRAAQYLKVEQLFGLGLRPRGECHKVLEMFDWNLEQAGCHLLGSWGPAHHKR
T4 sequence (P23458 whole entry): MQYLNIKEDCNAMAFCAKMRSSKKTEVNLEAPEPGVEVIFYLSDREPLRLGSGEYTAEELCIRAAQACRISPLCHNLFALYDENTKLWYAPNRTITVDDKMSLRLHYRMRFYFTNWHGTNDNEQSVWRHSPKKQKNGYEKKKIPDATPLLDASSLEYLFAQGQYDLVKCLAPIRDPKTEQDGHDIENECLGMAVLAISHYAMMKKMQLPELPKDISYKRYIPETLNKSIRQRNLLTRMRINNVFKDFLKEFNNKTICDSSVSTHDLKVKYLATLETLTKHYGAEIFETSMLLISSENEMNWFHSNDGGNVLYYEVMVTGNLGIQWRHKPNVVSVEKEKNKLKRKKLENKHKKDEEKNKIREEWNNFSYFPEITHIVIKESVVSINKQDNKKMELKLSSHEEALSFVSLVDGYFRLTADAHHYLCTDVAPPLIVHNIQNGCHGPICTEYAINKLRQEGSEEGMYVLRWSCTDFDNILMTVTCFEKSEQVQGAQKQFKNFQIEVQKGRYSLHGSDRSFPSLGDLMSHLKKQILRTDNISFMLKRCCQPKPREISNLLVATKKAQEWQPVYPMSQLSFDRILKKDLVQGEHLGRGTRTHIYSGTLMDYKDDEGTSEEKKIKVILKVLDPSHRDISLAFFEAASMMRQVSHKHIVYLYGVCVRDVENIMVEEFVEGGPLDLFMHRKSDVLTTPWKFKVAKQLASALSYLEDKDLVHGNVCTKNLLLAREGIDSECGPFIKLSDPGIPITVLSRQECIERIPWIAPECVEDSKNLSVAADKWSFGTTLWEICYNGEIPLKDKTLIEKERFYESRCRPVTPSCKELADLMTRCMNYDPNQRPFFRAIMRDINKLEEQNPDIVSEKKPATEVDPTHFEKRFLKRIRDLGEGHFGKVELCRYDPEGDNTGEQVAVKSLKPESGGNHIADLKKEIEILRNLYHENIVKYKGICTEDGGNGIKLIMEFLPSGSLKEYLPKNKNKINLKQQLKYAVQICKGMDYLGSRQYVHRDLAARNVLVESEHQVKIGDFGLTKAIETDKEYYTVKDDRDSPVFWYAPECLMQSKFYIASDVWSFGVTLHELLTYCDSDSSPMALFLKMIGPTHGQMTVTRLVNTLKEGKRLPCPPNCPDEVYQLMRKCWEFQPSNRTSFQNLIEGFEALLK

For `CN1C(=O)c2ccccc2N(C)c2cc(Nc3ccc(C(=O)N4CCN(S(C)(=O)=O)CC4)cc3F)ncc21` [Compound T72], the EC50 (human PBMCs) was 4250 nM, the “AMPKa1 or AMPKa2 Inhibition % at indicated screening concentration” value (shortened to “AMPKa1 or AMPKa2 Inhibition %”) (AMPKa1 or AMPKa2) was “E (E is ≦35%)” and the inhibition at 1 µM (TAO2) was at most 35%. For the same compound, the inhibition at 1 µM (AurA) was at most 35%, the “AurB or AurC Inhibition % at indicated screening concentration” value (“AurB or AurC Inhibition %” for short) (AurB or AurC) was “D (D is >35% to ≦50%)” and the inhibition at 1 µM (ACK) was at most 35%. The “ABL or ARG Inhibition % at indicated screening concentration” value (“ABL or ARG Inhibition %” below) (ABL or ARG) was “E (E is ≦35%)”, the inhibition at 1 µM (JAK1) was at most 35% and the IC50 (ERK5) was at most 50 nM. For the same compound, the inhibition at 1 µM (ERK5) was over 90%.

In the case of `CCOc1cc(C(=O)N2CCC(N3CCN(C)CC3)CC2)ccc1Nc1cc2c(cn1)N(C)C(=O)c1ccccc1N2S(C)(=O)=O` [Compound T85], the EC50 (human PBMCs) is reported as over 15000 nM, the “AMPKa1 or AMPKa2 Inhibition %” value (AMPKa1 or AMPKa2) is reported as “E (E is ≦35%)” and the inhibition at 1 µM (TAO2) is reported as at most 35%. For the same compound, the inhibition at 1 µM (AurA) was at most 35%, the “AurB or AurC Inhibition %” value (AurB or AurC) was “E (E is ≦35%)” and the inhibition at 1 µM (ACK) was at most 35%. The “ABL or ARG Inhibition %” value (ABL or ARG) was “E (E is ≦35%)”, the inhibition at 1 µM (JAK1) was at most 35% and the IC50 (ERK5) was over 500 nM. The inhibition at 1 µM (ERK5) was at most 35%.

With `CCOc1cc(C(=O)N2CCCNCC2)ccc1Nc1cc2c(cn1)N(C)C(=O)c1scnc1N2C` [Compound T7] the EC50 (human PBMCs) was 340 nM, the “AMPKa1 or AMPKa2 Inhibition %” value (AMPKa1 or AMPKa2) was “E (E is ≦35%)” and the inhibition at 1 µM (TAO2) was at most 35%. For the same compound, the inhibition at 1 µM (AurA) was at most 35%, the “AurB or AurC Inhibition %” value (AurB or AurC) was “E (E is ≦35%)” and the inhibition at 1 µM (ACK) was at most 35%. The “ABL or ARG Inhibition %” value (ABL or ARG) was “E (E is ≦35%)”, the inhibition at 1 µM (JAK1) was at most 35% and the IC50 (ERK5) was 50 to 100 nM. It also gave an inhibition at 1 µM (ERK5) of over 90%.

For `CN1CCN([C@@H]2CCN(C(=O)c3ccc(Nc4cc5c(cn4)N(C)C(=O)c4ccccc4N5C)c(OC(F)F)c3)C2)CC1` [Compound T75], the EC50 (human PBMCs) was 1550 ± 1110 nM, the “AMPKa1 or AMPKa2 Inhibition %” value (AMPKa1 or AMPKa2) was “E (E is ≦35%)” and the inhibition at 1 µM (TAO2) was at most 35%. For the same compound, the inhibition at 1 µM (AurA) was at most 35%, the “AurB or AurC Inhibition %” value (AurB or AurC) was “E (E is ≦35%)” and the inhibition at 1 µM (ACK) was at most 35%. The “ABL or ARG Inhibition %” value (ABL or ARG) was “E (E is ≦35%)”, the inhibition at 1 µM (JAK1) was at most 35% and the IC50 (ERK5) was at most 50 nM. It also gave an inhibition at 1 µM (ERK5) of over 90%.

`CCOc1cc(C(=O)N2CC[C@@H](N3CCN(C)CC3)C2)ccc1Nc1cc2c(cn1)N(C)C(=O)c1ccccc1N2C1CC1` [Compound T68] was tested, and the EC50 (human PBMCs) was 1400 nM, the “AMPKa1 or AMPKa2 Inhibition %” value (AMPKa1 or AMPKa2) was “E (E is ≦35%)” and the inhibition at 1 µM (TAO2) was at most 35%. The inhibition at 1 µM (AurA) was at most 35%, the “AurB or AurC Inhibition %” value (AurB or AurC) was “E (E is ≦35%)” and the inhibition at 1 µM (ACK) was at most 35%. The “ABL or ARG Inhibition %” value (ABL or ARG) was “E (E is ≦35%)”, the inhibition at 1 µM (JAK1) was at most 35% and the IC50 (ERK5) was at most 50 nM. The inhibition at 1 µM (ERK5) was over 90%.
